For one data set, the target named is CYP2C9 (Homo sapiens, UniProt P11712). In words: CYP450 panel inhibition in human liver microsomes, 2C9 (diclofenac). The conditions noted are these: for inhibition at 30 min, 10 µM: human, microsomes, pH 7.4. An excerpt:
The quenched samples were stored refrigerated.
A general note: Liver microsomes are a subcellular fraction often used to study metabolism.

The test system of data set [1] is phospho-ERK in A549 (KRAS G12S) cells. In words: Cell-based pERK (pERK:tERK) in A549 cells. To be noted: for pERK:tERK (10 nM 2 h A549): Phospho-ERK Screen in A549 (KRAS G12S), head 10 nM 2 h, title 10 μM for 2 hours; for activity at 0.01 µM: Homo sapiens, A549, 2 h, read-out: A549-pERK (10 nM, 2 h). The essentials:
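A549 cells in 6-well plates were treated with compound at a predetermined concentration for 2 hours at 37 °C. Lysates were then normalised by Bradford protein assay to 1 mg/mL for pERK. Phospho-ERK and total ERK were detected by Western blot with IRDye secondary antibodies and quantified by LI-COR Odyssey imaging.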

In data set [2] the test system is cynomolgus monkey hepatocytes. In words: Hepatocyte stability, cynomolgus monkey. Type of data set: in vitro ADME. The conditions noted are these: 2 μM, 0.5 million cells/ml. The method, then:
(§1) In this study, human, cynomolgus monkey, beagle dog, wistar hannover rat, and balb/c mouse hepatocyle stability was determined.

For a further data set, the system named is beagle dog hepatocytes. The experiment in a line: Hepatocyte stability, beagle dog. To be noted: 2 μM, 0.5 million cells/ml. Type of data set: in vitro ADME. The method, then: as §1
The test system of data set [3] is wistar hannover rat hepatocytes. The experiment in a line: Hepatocyte stability, wistar hannover rat. It is filed as in vitro ADME. The conditions noted are these: 2 μM, 0.5 million cells/ml. The method, then: as §1
Another data set relates to balb/c mouse hepatocytes. In words: Hepatocyte stability, balb/c mouse. It is filed as in vitro ADME. To be noted: 2 μM, 0.5 million cells/ml. The method, then:
as §1

The next data set relates to Caco-2 cells. In words: Caco-2 bidirectional permeability (absorption & efflux). The conditions noted are these: Example 47. Background: Passage across Caco-2 layers is used to estimate intestinal permeability.

Where a name gives a salt, the structure may show the parent alone.

By inhibition is commonly meant the percentage by which the read-out fell short of the control.

Sequence of CYP2C9 (P11712 whole entry): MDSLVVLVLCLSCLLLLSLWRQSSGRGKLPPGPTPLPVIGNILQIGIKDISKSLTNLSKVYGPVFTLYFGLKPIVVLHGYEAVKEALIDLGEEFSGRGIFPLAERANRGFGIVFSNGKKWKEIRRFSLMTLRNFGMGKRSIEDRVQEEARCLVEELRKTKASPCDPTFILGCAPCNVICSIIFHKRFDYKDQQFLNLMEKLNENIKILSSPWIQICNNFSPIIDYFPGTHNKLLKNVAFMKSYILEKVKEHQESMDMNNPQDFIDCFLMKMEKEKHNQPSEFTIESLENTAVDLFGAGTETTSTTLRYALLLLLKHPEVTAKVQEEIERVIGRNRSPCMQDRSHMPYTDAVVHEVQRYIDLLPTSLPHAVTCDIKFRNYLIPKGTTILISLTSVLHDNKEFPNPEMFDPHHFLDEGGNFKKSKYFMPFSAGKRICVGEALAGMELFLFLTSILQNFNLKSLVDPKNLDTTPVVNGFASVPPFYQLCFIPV

With `CCCS(=O)(=O)Nc1cccc(Cc2c(CN3CCNCC3)c3cc(Cl)c(OC(=O)N(C)C)cc3oc2=O)c1F` [Compound 167], the “CYP-2C9 (Diclofenac) mean percentage CYP inhibition” value at CYP2C9 (human liver microsomes, 10 μM, substrate diclofenac) worked out at 71.8%. In data set [1], the “pERK:tERK (10 nM 2 h A549)” value is listed as 27 (n = 2). Moreover, in data set [2], the “% Remaining At T120” value was 29.0%, the “CLint (L/hr/kg)” value stood at 5.02 L/h/kg, the “CLint (mL/min/kg)” value was 83.7 mL/min/kg and the “T1/2” value is 1.12 h. Besides, in the data set on beagle dog hepatocytes, the “% Remaining At T120” value worked out at 17.7%, the “CLint (L/hr/kg)” value turned out to be 9.31 L/h/kg, the “CLint (mL/min/kg)” value is reported as 155 mL/min/kg and the “T1/2” value came to 0.8 h. Moreover, in data set [3], the “% Remaining At T120” value is listed as 31.0%, the “CLint (L/hr/kg)” value amounted to 3.16 L/h/kg, the “CLint (mL/min/kg)” value came to 52.6 mL/min/kg and the “T1/2” value worked out at 1.18 h. For the same compound, in the data set with balb/c mouse hepatocytes, the “% Remaining At T120” value was 52.5%, the “CLint (L/hr/kg)” value stood at 7.61 L/h/kg, the “CLint (mL/min/kg)” value is listed as 127 mL/min/kg and the “T1/2” value amounted to 2.15 h. In the data set with Caco-2 cells, the “A − B Permeability Ranking” value is given as “Lower”, the “Mean Efflux Ratio” value came out at 23.2, the “Mean Papp A − B (10^−6 cm/s)” value is given as 0.845 10^−6 cm/s and the “Mean Papp B − A (10^−6 cm/s)” value is recorded as 19.6 10^−6 cm/s.

`CCN(C)Cc1c(Cc2cccc(NS(=O)(=O)NC)c2Cl)c(=O)oc2cc(OC(=O)N(C)C)ccc12` [Compound 245, 3-(2-chloro-3-((N-methylsulfamoyl)amino)benzyl)-4-((ethyl(methyl)amino)methyl)-2-oxo-2H-chromen-7-yl dimethylcarbamate] showed an inhibition at 30 min, 10 µM on CYP2C9 of 25.8%. Further, the activity at 0.01 µM in data set [1] was determined as 68.8%. In addition, in data set [1], the “pERK:tERK (10 nM 2 h A549)” value stood at 69. The “% Remaining At T120” value in data set [2] amounted to 3.3%; with beagle dog hepatocytes it was 23.4%; in data set [3] it was 15.7%; in the data set with balb/c mouse hepatocytes it was 52.8%. Further, the “A − B Permeability Ranking” value in the data set on Caco-2 cells is “Higher”.

`CNS(=O)(=O)Nc1cccc(Cc2c(CN3CCNCC3)c3ccc(OC(=O)N(C)C)cc3oc2=O)c1Cl` [Compound 246, 3-(2-chloro-3-((N-methylsulfamoyl)amino)benzyl)-2-oxo-4-(piperazin-1-ylmethyl)-2H-chromen-7-yl dimethylcarbamate hydrochloride] registered an inhibition at 30 min, 10 µM on CYP2C9 of 19.4%. Moreover, the activity at 0.01 µM in data set [1] was 19%. Also, in data set [1], the “pERK:tERK (10 nM 2 h A549)” value amounted to 19. Moreover, the “% Remaining At T120” value in data set [2] turned out to be 81.4%; in the data set on beagle dog hepatocytes, 79.6%; in data set [3] it was 63.0%; in the data set with balb/c mouse hepatocytes, 73.6%. Further, the “A − B Permeability Ranking” value in the data set with Caco-2 cells is recorded as “Higher”.

On CYP2C9, `CNS(=O)(=O)Nc1cccc(Cc2c(CN3CCNCC3)c3cc(Cl)c(OC(=O)N(C)C)cc3oc2=O)c1Cl` [Compound 256, 6-chloro-3-(2-chloro-3-((N-methylsulfamoyl)amino)benzyl)-2-oxo-4-(piperazin-1-ylmethyl)-2H-chromen-7-yl dimethylcarbamate hydrochloride] returned an inhibition at 30 min, 10 µM of 36.5%. Moreover, the “pERK:tERK (10 nM 2 h A549)” value in data set [1] came to 14. Also, the “% Remaining At T120” value is given as 53.9% in data set [2], 62.8% in the data set on beagle dog hepatocytes, 45.7% in data set [3] and 65.6% with balb/c mouse hepatocytes. The “A − B Permeability Ranking” value in the data set with Caco-2 cells is listed as “Higher”.

As for `CCS(=O)(=O)Nc1cccc(Cc2c(CN3CCNCC3)c3cc(Cl)c(OC(=O)N(C)C)cc3oc2=O)c1Cl` [Compound 257, 6-chloro-3-(2-chloro-3-(ethylsulfonamido)benzyl)-2-oxo-4-(piperazin-1-ylmethyl)-2H-chromen-7-yl dimethylcarbamate hydrochloride], at CYP2C9, the inhibition at 30 min, 10 µM was found to be 53.7%. Also, the “pERK:tERK (10 nM 2 h A549)” value in data set [1] stood at 17. For the same compound, the “% Remaining At T120” value in data set [2] worked out at 62.8%; in the data set on beagle dog hepatocytes, 47.8%; in data set [3], 45.4%; with balb/c mouse hepatocytes, 66.7%. For the same compound, the “A − B Permeability Ranking” value in the data set on Caco-2 cells is on record as “Higher”.

The record behind these values is patent publication US20250179057A1, “MEK IMMUNE ONCOLOGY INHIBITORS AND THERAPEUTIC USES THEREOF” (Immuneering Corporation, priority 2022, published 2025).
